In a melting point compilation (Tetko et al.; mined from patent text by program, amines drawn as free bases though some values may be those of a salt):

melting point [°C]	SMILES
126 to 129	COc1cc2c(ccn2S(C)(=O)=O)cc1Br
64.8	C#CCOc1cc(Oc2ccccc2C)ncn1
197 to 198	O=C(c1ccc(-c2ccccc2)cc1)N1Cc2ccc(C(=O)C(Cl)(Cl)Cl)n2Cc2ccccc21
124 to 127	COc1ccc2c(c1)CCC(c1ccc(F)cc1)C2=O (stereo not drawn)
273 to 275	CCc1c2nc(-c3cc(S(C)(=O)=O)ccc3OCC(C)C)[nH]c(=O)c2nn1C1CCN(C(C)C)CC1
45 to 47	OCc1coc(Cc2ccc(F)cc2)c1
78 to 80	N#Cc1cn(CC(O)CCl)nc1[N+](=O)[O-] (stereo not drawn)
154 to 155	O=C(Nc1ccc(Oc2ccc(Cl)cc2Cl)nc1)N1CCc2ccccc2CC1
225	O=C(NC1CCCC1)N1CCc2[nH]cnc2C1
114 to 115	COc1cccc(C(O)c2cccnc2Cl)c1 (stereo not drawn)
94	CCCCOc1cc(/C=C(\OCC)C(=O)O)ccc1OCCc1ccc(OS(=O)(=O)CCCC)c(OC)c1
220	CS(=O)c1cc(CCC(=O)OC(C)(C)C)cc(-c2nc(=O)c3ccccc3s2)n1 (stereo not drawn)
143 to 145	NCC1CN(c2cc(F)c(-c3cccnc3)c(F)c2)C(=O)O1 (stereo not drawn)
97 to 99	CCN(CC)CCNC(=O)c1cc(Cl)c(N)cc1OCCN
167 to 168	O=C(O)CCCc1ccc(N2CCOCC2)cc1
172 to 174	CCCCCCCCCCCCCCCCCCOc1cc(OCc2ccc3ccccc3n2)cc(N(CC(=O)O)CC(=O)O)c1
217 to 218	Cc1c(C(=O)Nc2ccc(N3CCCCC3)c(C#N)c2)cnn1C
235 to 238	CCN1C(=O)CCC(C)(C)c2ccc(Nc3ncc(Cl)c(Nc4c(F)cccc4OCC#N)n3)cc21
144 to 148	O=C(Oc1ccccc1N1c2ccccc2Sc2ccccc21)c1ccccc1
258 to 261	Cc1c(-c2ccncc2)[nH]c(-c2ccncc2)c1CO
214 to 217	O=c1[nH]c2ccc(C3=NOC(CN4CCC(c5ccc(F)cc5)CC4)C3)cc2o1 (stereo not drawn)
121	C#CCOC(=O)C1C(C)=NC(N2CCCCC2)=C(C(=O)OCC)C1c1cccc([N+](=O)[O-])c1 (stereo not drawn)
127 to 129	COc1cc(C(=O)N(C(C)C)C2CCCCC2)ccc1CN(C(=O)CCl)c1cccnc1O

melting point [°C]	SMILES
50	COc1ccc(COc2ncccc2C(=O)O)cc1OC1CC2CCC1C2 (stereo not drawn)
219 to 221	N#Cc1nn(C2CCCC2)c2nc(-c3ccncc3)nc(N)c12
91 to 92	CN(c1ccc(OC(F)(F)C(F)F)cc1)c1c([N+](=O)[O-])cc([N+](=O)[O-])cc1C(F)(F)F
191 to 192	Nc1ccc(C(F)(F)F)cc1C(=O)O
255 to 256	Cn1c(-c2ccccc2)c2c(c(C#N)c1=O)-c1ccccc1C2=O
98 to 100	CS(=O)(=O)OCCOc1ccccc1OCc1ccccc1
149 to 151	CS(=O)(=O)N1CCN(c2ccc(OC[C@H]3CCn4cc([N+](=O)[O-])nc4O3)cc2)CC1
88 to 90	COc1c(-c2noc3ccsc23)ccc2c1O2
91 to 95	CS(=O)(=O)c1ccc(C(CC2CCCC2)C(=O)Nc2ccncn2)cc1[N+](=O)[O-] (stereo not drawn)
76.2 to 77.8	CCOC(=O)N1CCN(CCNc2ncnc3c2sc2nc(N4CCCC4)c4c(c23)CC(C)(C)CC4)CC1
85 to 86	CCCCCC(CCN1C(=O)NC2CC(=O)CC21)OC(C)=O (stereo not drawn)
115 to 117	COC(=O)c1cc([N+](=O)[O-])c(C(C)(C)C)c([N+](=O)[O-])c1
97 to 99	Cc1ccc(C(=O)c2noc(CS(=O)c3ccccc3)n2)cc1 (stereo not drawn)
108 to 109	CCc1nc(/C=C\c2cn(-c3ccccc3)nc2OCc2ccc(OCc3nc(-c4ccco4)oc3C)c(OC)c2)cs1
190	COc1ccc(-c2ccc3cc(OC)ccc3c2)cc1
137 to 138	CC(C)c1nn(-c2ccc(C(F)(F)F)cn2)cc1CCCCOc1cc(CCC(=O)O)n(-c2ccccc2)n1
162 to 165	CCc1cc(C(=O)OC)n(C)n1
174	CC(C)CN(C)c1cc2c(cc1C#N)NC(=O)CC(c1cccc(-n3nncc3CN3CCCC3)c1)=N2
152 to 153	CC(=O)Oc1ccc(C2=NNC(=O)CC2C)cc1 (stereo not drawn)
98 to 102	Nc1c(Cl)nc2ccccc2c1NCc1ccccn1
244 to 245	O=C(Nc1ccc(Cl)c(C(=O)Nc2ccccc2)c1O)Nc1cccc(Cl)c1Cl
129 to 130	COC(=O)c1nc(C)c(-c2nccs2)s1
92 to 95	CCOC(=O)C=CC=Cc1ccc(OC)c(C)c1C

melting point [°C]	SMILES
187 to 188	COc1cccc2sc(-c3ccc([N+](=O)[O-])cc3Cl)nc12
277	NNC1=NS(=O)(=O)c2cc(Cl)ccc21
240	COC(=O)c1cccc(-c2csc(N=C(N)N)n2)n1
160 to 162	CCc1cn(C2CC(O)C(CCCCc3ccccc3)O2)c(=O)[nH]c1=O (stereo not drawn)
211 to 212	CC(=O)c1c(C)[nH]c(-c2ccc(F)cc2)c1N
208 to 210	COc1ccc2cc(-c3ccc(-c4ccccc4)[nH]3)ccc2c1
162 to 170	CS(=O)(=O)NCCn1c(=O)[nH]c2ccccc21
60	CC(C(=O)CCl)c1cccc(C(=O)c2ccccc2)c1 (stereo not drawn)
166 to 168	CCOCc1nc2c(N)nc3ccccc3c2n1CC1(N)CCCCC1
266 to 268	CCOC(=O)c1c[nH]c2nc(N3CCN(C)CC3)ncc2c1=O
> 300	CS(=O)(=O)On1c(=O)c2cc3c(=O)n(OS(C)(=O)=O)c(=O)c3cc2c1=O
65 to 67	Cc1cc(Cl)ccc1N=CN(C)SN(C)c1ccccc1
120 to 122	CCC1Cc2cc(OC)ccc2C2CCC3(C)C(=O)CC(C)C3C12 (stereo not drawn)
147 to 149	NC(=O)N(O)Cc1ccc(OCc2ccccc2)cc1
40 to 40.5	CCCc1ccc(OCCC(C)C)cc1O
92 to 100	CC1(C)CC(OC(=O)CCCCCCCCC(=O)OC2CC(C)(C)N(OC(=O)c3ccccc3)C(C)(C)C2)CC(C)(C)N1OC(=O)c1ccccc1
160 to 162	NC(=O)CCCN1C(=O)c2ccccc2C1=O
232 to 234	CN(c1cccc2cc(C3=NCC(CC(=O)O)S3)[nH]c12)S(=O)(=O)c1cccs1 (stereo not drawn)
73 to 75	CCOC(=O)CNS(=O)(=O)C(F)(F)F
180 to 182	Cc1c(C(=O)O)cnn1-c1c(Cl)cccc1Cl
145 to 150	CC(C)(C)C(CO)NC(=O)C(CC(=O)O)N1C=CN(c2ccc(-c3ccccc3)cc2)C1 (mixture of isomers)
90 to 110	NCCSc1ccc(CCC(=O)O)cc1
126 to 129	CCCc1nc(C=O)c(C)[nH]1

SMILES	melting point [°C]
Cc1c(N2C(=O)C[C@H](O)[C@@H]2C)ccc(C#N)c1F	114 to 115
CN1CC(=O)N(c2ccc(C#N)c(C(F)(F)F)c2)C1=S	220 to 221
CCOC(=O)c1ccc(CC(C)NCC(O)c2ccc(O)c(CO)c2)cc1 (stereo not drawn)	92 to 96
Cc1cccc2nc(CCl)cn12	120 to 121
